{"source": "patent US5196203A", "about": "“Theophylline dosage form” (priority 1989, dated 1993)", "origin": "cited, not measured here", "data": [{"smiles": "Cn1c(=O)c2[nH]cnc2n(C)c1=O", "note": "[Theophylline, 1,3-dimethylxanthine]", "values": [{"measurement": "Effect at plasma concentrations above 20 mg/L", "result": "often associated with theophylline toxicity"}]}]}
